# Experimental data: the kinase profiling compilation of Christmann-Franck et al. (2016)
# Assays:
# Assay in all cases: KINOMEscan competition binding
# Conditions in all cases: compound 1.0 µM
# STK39 (human) = STK39 (human) (UniProt Q9UEW8)
# PRKCI (human) = PRKCI (human) (UniProt P41743)
# BTK (human) = BTK (human) (UniProt Q06187)
# IRAK4 (human) = IRAK4 (human) (UniProt Q9NWZ3)
# FGFR2 (human) = FGFR2 (human) (UniProt P21802)
# [1] = test system: PIK3CA (human), P42336 [E545A]
# AKT3 (human) = AKT3 (human) (UniProt Q9Y243)
# PRKX (human) = PRKX (human) (UniProt P51817)
# STK10 (human) = STK10 (human) (UniProt O94804)
# WEE2 (human) = WEE2 (human) (UniProt P0C1S8)
# CAMK2B (human) = CAMK2B (human) (UniProt Q13554)
# CDK13 (human) = CDK13 (human) (UniProt Q14004)
# PIK3C2G (human) = PIK3C2G (human) (UniProt O75747)
# MAP4K5 (human) = MAP4K5 (human) (UniProt Q9Y4K4)
# [2] = test system: EGFR (human), P00533 [P753S; 747-752 del]
# [3] = test system: RET (human), P07949 [V804L]
# ITK (human) = ITK (human) (UniProt Q08881)
# NEK1 (human) = NEK1 (human) (UniProt Q96PY6)
# PRKCE (human) = PRKCE (human) (UniProt Q02156)
# MET (human) = MET (human) (UniProt P08581)
# CDK7 (human) = CDK7 (human) (UniProt P50613)
# LATS1 (human) = LATS1 (human) (UniProt O95835)
# CSK (human) = CSK (human) (UniProt P41240)
# [4] = test system: EGFR (human), P00533 [T790M]
# PRKAA2 (human) = PRKAA2 (human) (UniProt P54646)
# FGFR3 (human) = FGFR3 (human) (UniProt P22607)
# CAMK2A (human) = CAMK2A (human) (UniProt Q9UQM7)
# MAK (human) = MAK (human) (UniProt P20794)
# DAPK2 (human) = DAPK2 (human) (UniProt Q9UIK4)
# EPHA7 (human) = EPHA7 (human) (UniProt Q15375)
# BMP2K (human) = BMP2K (human) (UniProt Q9NSY1)
# ULK3 (human) = ULK3 (human) (UniProt Q6PHR2)
# RIPK4 (human) = RIPK4 (human) (UniProt P57078)
# [5] = biological target: TYK2 JH1 catalytic (human) (UniProt P29597)
# RIPK2 (human) = RIPK2 (human) (UniProt O43353)
# MAPK11 (human) = MAPK11 (human) (UniProt Q15759)
# CSNK1G3 (human) = CSNK1G3 (human) (UniProt Q9Y6M4)
# ACVRL1 (human) = ACVRL1 (human) (UniProt P37023)
# TESK1 (human) = TESK1 (human) (UniProt Q15569)
# PDPK1 (human) = PDPK1 (human) (UniProt O15530)
# ALK (human) = ALK (human) (UniProt Q9UM73)
# MERTK (human) = MERTK (human) (UniProt Q12866)
# CDKL2 (human) = CDKL2 (human) (UniProt Q92772)
# Chain of WEE2 (human) (P0C1S8 whole entry, looked up): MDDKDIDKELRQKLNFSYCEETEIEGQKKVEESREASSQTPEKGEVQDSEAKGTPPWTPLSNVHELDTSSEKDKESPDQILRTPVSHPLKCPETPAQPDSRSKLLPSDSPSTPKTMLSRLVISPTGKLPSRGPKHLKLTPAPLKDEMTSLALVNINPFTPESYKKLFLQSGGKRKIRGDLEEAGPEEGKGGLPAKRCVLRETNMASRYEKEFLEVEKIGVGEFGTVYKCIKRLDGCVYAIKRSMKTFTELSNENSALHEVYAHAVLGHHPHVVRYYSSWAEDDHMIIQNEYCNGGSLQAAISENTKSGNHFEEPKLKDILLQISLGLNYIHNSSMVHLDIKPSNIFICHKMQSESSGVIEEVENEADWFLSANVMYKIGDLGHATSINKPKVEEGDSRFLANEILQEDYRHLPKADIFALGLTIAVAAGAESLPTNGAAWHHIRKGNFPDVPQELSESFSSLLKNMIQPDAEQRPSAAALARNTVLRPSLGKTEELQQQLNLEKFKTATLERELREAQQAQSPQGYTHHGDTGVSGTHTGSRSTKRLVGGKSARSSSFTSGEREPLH
# Chain of PIK3CA (human), P42336 [E545A] (P42336 whole entry E545A, looked up): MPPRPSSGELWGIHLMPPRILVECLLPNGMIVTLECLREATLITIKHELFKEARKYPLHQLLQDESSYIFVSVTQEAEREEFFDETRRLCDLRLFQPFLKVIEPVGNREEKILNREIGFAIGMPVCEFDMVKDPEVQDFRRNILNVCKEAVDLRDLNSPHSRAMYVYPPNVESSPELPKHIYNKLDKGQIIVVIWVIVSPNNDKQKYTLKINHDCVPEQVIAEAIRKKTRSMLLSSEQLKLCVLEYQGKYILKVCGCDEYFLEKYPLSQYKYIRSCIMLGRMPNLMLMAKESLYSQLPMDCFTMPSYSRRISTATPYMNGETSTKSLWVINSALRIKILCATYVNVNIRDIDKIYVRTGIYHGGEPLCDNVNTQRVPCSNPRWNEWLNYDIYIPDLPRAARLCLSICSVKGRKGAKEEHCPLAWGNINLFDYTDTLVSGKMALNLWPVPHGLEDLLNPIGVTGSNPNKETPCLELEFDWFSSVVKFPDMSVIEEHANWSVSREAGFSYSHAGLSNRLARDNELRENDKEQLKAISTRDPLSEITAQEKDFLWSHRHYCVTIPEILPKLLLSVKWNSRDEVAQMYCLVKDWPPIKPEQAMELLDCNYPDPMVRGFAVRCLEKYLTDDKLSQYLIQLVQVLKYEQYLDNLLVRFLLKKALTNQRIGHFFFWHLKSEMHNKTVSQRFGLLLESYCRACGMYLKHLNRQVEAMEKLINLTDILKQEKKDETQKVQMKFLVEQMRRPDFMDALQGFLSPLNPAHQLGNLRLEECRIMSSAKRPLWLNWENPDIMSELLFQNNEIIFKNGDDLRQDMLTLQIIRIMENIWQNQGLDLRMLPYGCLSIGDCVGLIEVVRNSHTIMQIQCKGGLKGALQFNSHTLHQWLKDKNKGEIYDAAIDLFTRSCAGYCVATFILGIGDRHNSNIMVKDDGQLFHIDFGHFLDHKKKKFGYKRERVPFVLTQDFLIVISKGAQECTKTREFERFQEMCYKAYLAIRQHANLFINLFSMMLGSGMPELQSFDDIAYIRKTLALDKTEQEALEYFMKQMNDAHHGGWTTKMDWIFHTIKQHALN
# Chain of TYK2 JH1 catalytic (human) (P29597 whole entry, looked up): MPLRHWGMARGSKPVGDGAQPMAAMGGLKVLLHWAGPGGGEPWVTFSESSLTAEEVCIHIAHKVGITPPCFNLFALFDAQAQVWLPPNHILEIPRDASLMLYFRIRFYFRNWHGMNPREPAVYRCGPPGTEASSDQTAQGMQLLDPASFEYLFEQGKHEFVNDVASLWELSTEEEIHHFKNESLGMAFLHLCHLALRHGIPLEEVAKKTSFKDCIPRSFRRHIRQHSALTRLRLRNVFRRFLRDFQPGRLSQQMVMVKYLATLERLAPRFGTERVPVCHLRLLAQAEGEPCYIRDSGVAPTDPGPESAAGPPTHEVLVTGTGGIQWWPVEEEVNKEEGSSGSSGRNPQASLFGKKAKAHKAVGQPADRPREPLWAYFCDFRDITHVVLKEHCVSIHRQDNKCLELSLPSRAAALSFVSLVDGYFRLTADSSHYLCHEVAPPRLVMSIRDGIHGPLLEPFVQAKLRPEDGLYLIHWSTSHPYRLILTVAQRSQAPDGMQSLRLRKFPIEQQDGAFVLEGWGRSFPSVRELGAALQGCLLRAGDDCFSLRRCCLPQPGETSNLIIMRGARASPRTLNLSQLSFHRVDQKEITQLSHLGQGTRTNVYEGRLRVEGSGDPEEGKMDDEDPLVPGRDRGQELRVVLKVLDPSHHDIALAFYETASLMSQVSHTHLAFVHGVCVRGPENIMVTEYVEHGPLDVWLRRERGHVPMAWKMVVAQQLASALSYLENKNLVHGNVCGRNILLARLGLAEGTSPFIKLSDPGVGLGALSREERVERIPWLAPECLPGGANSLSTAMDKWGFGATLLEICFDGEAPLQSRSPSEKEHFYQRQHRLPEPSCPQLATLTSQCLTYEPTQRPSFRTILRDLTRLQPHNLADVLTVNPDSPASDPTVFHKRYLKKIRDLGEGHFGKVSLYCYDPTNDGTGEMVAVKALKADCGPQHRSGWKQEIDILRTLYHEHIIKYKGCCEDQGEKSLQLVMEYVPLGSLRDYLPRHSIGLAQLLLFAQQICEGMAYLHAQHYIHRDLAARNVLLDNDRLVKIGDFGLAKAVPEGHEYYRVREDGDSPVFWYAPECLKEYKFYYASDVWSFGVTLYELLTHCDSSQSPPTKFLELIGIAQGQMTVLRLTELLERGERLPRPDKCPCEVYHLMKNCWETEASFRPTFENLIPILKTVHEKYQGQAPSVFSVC
# Chain of CSNK1G3 (human) (Q9Y6M4 whole entry, looked up): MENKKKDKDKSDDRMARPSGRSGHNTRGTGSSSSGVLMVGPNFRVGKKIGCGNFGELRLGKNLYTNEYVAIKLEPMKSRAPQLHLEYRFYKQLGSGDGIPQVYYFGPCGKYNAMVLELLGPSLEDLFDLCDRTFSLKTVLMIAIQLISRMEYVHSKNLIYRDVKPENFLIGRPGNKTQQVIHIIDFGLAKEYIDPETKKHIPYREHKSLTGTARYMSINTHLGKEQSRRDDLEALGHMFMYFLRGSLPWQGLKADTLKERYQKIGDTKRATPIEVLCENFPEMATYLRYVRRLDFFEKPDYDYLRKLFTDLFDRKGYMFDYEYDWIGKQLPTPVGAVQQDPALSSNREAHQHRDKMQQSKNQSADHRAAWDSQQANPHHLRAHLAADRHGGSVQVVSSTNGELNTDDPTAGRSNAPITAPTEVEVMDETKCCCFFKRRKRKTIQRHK
# Chain of FGFR3 (human) (P22607 whole entry, looked up): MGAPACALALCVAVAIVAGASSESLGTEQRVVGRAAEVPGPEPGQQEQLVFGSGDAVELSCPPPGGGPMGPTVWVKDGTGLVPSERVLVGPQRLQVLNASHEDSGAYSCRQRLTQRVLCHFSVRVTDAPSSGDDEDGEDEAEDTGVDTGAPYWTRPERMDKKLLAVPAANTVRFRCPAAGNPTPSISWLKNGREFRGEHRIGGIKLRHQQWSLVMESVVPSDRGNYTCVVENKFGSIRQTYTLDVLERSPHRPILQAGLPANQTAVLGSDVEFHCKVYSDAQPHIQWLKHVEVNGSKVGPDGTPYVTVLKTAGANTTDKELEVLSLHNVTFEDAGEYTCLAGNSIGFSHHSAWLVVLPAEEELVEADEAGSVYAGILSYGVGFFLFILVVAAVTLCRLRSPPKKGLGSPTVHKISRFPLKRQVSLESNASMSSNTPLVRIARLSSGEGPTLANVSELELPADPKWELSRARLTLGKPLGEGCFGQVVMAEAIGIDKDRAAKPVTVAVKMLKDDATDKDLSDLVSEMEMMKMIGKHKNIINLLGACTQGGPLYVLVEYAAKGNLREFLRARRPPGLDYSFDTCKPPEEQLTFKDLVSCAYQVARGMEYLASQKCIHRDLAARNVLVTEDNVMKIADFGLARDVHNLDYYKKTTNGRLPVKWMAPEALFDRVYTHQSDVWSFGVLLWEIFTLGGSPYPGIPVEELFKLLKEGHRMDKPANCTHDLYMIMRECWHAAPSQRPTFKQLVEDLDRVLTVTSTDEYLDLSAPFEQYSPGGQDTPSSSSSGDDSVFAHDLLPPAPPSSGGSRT
# Chain of FGFR2 (human) (P21802 whole entry, looked up): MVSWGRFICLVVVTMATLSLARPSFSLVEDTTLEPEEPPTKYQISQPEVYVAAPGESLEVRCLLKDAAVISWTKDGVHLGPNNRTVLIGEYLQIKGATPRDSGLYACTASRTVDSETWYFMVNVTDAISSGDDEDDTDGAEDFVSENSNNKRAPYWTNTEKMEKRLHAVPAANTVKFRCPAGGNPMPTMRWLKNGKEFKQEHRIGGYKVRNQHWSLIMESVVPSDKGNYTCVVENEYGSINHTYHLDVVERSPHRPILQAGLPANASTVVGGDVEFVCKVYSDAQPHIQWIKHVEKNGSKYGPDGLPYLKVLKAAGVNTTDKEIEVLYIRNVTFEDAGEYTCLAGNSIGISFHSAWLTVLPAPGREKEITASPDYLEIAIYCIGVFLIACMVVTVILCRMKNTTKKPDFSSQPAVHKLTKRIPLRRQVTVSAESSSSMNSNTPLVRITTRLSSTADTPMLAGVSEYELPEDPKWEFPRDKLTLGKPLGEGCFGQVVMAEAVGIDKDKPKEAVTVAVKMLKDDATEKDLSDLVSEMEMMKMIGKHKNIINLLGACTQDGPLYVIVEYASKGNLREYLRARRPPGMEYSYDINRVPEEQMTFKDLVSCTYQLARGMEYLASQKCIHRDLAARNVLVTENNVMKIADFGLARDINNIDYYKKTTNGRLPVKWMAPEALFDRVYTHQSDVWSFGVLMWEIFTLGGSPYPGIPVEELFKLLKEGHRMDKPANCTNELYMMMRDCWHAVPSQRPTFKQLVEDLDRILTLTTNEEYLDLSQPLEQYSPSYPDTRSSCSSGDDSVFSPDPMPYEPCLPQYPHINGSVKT
compound,measurement,setting,value
CN(C)C/C=C/C(=O)Nc1cccc(C(=O)Nc2ccc(Nc3nccc(/C(C#N)=C4\Nc5ccccc5S4)n3)cc2)c1,"kinase still bound, per cent of control",STK39 (human),100%
same,"kinase still bound, per cent of control",PRKCI (human),100%
same,"kinase still bound, per cent of control",BTK (human),76%
same,"kinase still bound, per cent of control",IRAK4 (human),71%
same,"kinase still bound, per cent of control",FGFR2 (human),100%
same,"kinase still bound, per cent of control",[1],100%
same,"kinase still bound, per cent of control",AKT3 (human),100%
same,"kinase still bound, per cent of control",PRKX (human),82%
same,"kinase still bound, per cent of control",STK10 (human),86%
same,"kinase still bound, per cent of control",WEE2 (human),100%
same,"kinase still bound, per cent of control",CAMK2B (human),100%
same,"kinase still bound, per cent of control",CDK13 (human),100%
same,"kinase still bound, per cent of control",PIK3C2G (human),100%
same,"kinase still bound, per cent of control",MAP4K5 (human),100%
same,"kinase still bound, per cent of control",[2],100%
same,"kinase still bound, per cent of control",[3],100%
same,"kinase still bound, per cent of control",ITK (human),85%
same,"kinase still bound, per cent of control",NEK1 (human),100%
same,"kinase still bound, per cent of control",PRKCE (human),100%
same,"kinase still bound, per cent of control",MET (human),92%
same,"kinase still bound, per cent of control",CDK7 (human),94%
same,"kinase still bound, per cent of control",LATS1 (human),89%
same,"kinase still bound, per cent of control",CSK (human),100%
same,"kinase still bound, per cent of control",[4],80%
same,"kinase still bound, per cent of control",PRKAA2 (human),100%
same,"kinase still bound, per cent of control",FGFR3 (human),100%
same,"kinase still bound, per cent of control",CAMK2A (human),100%
same,"kinase still bound, per cent of control",MAK (human),93%
same,"kinase still bound, per cent of control",DAPK2 (human),100%
same,"kinase still bound, per cent of control",EPHA7 (human),100%
same,"kinase still bound, per cent of control",BMP2K (human),51%
same,"kinase still bound, per cent of control",ULK3 (human),100%
same,"kinase still bound, per cent of control",RIPK4 (human),100%
same,"kinase still bound, per cent of control",[5],72%
same,"kinase still bound, per cent of control",RIPK2 (human),100%
same,"kinase still bound, per cent of control",MAPK11 (human),100%
same,"kinase still bound, per cent of control",CSNK1G3 (human),37%
same,"kinase still bound, per cent of control",ACVRL1 (human),100%
same,"kinase still bound, per cent of control",TESK1 (human),100%
same,"kinase still bound, per cent of control",PDPK1 (human),100%
same,"kinase still bound, per cent of control",ALK (human),100%
same,"kinase still bound, per cent of control",MERTK (human),66%
same,"kinase still bound, per cent of control",CDKL2 (human),28%
